Results as given in publication PMC11149885 (PLOS ONE, 2024).
Values joined by “and” are separate entries in the source; they are usually repeats but may differ in a detail not shown here. Equal entries are not always repeated.

Legend:
[1] = system: VEGF-induced angiogenesis on the CAM; assay: Gelatin sponge chick chorioallantoic membrane (CAM) assay; details: for Angiogenesis - Vessel thickness score, Mean: score 0-3; for Angiogenesis - Vessel thickness score, individual egg: score 0-3, one value per egg
VEGFR2 [2] = biological target: T1, VEGFR2 (Homo sapiens, UniProt P35968); assay: HotSpot kinase screen; type: biochemical; details: 10μM ATP
T1 construct: purchased Millipore Corporation (Dundee, Scotland) or Reaction Biology Corporation (contract assay)

FGFR2 = biological target: T2, FGFR2 (Homo sapiens, UniProt P21802); assay: HotSpot kinase screen; type: biochemical; details: 10μM ATP
T2 construct: purchased Reaction Biology Corporation (contract assay)
Experimental: (§1) Measurement of kinase activity was performed by Reaction Biology Corporation (Reaction Biology Corporation, Malvern, PA), using the HotSpot™ assay. The screen focused on RTKs reported in the literature to play a major role in the regulation of angiogenesis (VEGFR1, VEGFR2, and VEGFR3; fibroblast growth factor receptor [FGFR] 1, 2, and 3; and platelet-derived growth factor receptor beta [PDGFRβ]) as well as an RTK essential for maintaining blood vessel stability (TIE2). For the profiling, specific kinase/substrate pairs and required cofactors were prepared in a reaction buffer (20mM Hepes [pH 7.5], 10mM MgCl2, 1mM EGTA, 0.02% Brij35, 0.02 mg/mL BSA, 0.1mM Na3VO4, 2mM DTT, 1% dimethyl sulfoxide [DMSO]). TKI compounds were diluted to 10μM and 1μM concentrations for the screens and after addition to the reaction buffer incubated for 20 minutes, followed by the addition of a mixture of ATP (Sigma, St. Louis, MO) and ^33P-ATP (Perkin Elmer, Waltham, MA) to a final ATP concentration of 10μM. Reactions were carried out at room temperature for 2 hours, followed by spotting of the reactions onto P81 ion exchange filter paper (Whatman Inc., Piscataway, NJ). Unbound phosphate was removed by extensive washing of the filters. […] Kinome TREEspot images representing levels of inhibition were prepared using Kinome Mapper (https://www.reactionbiology.com/resources/tools/kinase-mapper).

VEGFR3 [3] = biological target: T3, VEGFR3 (Homo sapiens, UniProt P35916); assay: HotSpot kinase screen; type: biochemical; details: 10μM ATP
T3 construct: purchased Millipore Corporation (Dundee, Scotland) or Reaction Biology Corporation (contract assay)
Experimental: as §1

VEGFR2 [4] = biological target: T1, VEGFR2; assay: Ten-dose IC50 measurement; type: biochemical; details: 10μM ATP
VEGFR3 [5] = biological target: T3, VEGFR3; assay: Ten-dose IC50 measurement; type: biochemical; details: 10μM ATP
[6] = system: VEGF-A–induced sprouting of HUVECs; assay: HUVEC spheroid sprouting assay; type: cell-based, human; details: for cumulative sprout length per spheroid (CSL), mean: 25 ng/mL VEGF-165, 24 hours
Experimental: The three TKI compounds were tested by Reaction Biology Europe (Freiburg, Germany) in the spheroid-based cellular angiogenesis assay to determine their effect on VEGF-A–induced sprouting of HUVECs. Primary HUVECs from pooled donors at passage 3 to 4 (PromoCell, Heidelberg, Germany) were grown in endothelial cell growth and basal medium (ECGM/ECBM, PromoCell). Test compounds were prepared as 100-fold concentrated stock solutions in DMSO and pre-diluted in basal medium. HUVECs were stimulated using 25 ng/mL VEGF-165 (Reaction Biology Europe, Freiburg, Germany) pre-diluted in basal medium.
Spheroids were prepared as described by pipetting 400 HUVECs in a hanging drop on plastic dishes to allow overnight spheroid aggregation. Fifty HUVEC spheroids were seeded in 0.9 mL of a collagen gel and pipetted into individual wells of a 24-well plate to allow polymerization. Test compounds and VEGF-165 were added after 30 minutes by pipetting 100 μL of a ten-fold concentrated solution onto the polymerized gel. Plates were incubated at 37°C for 24 hours, and cells were fixed by adding 4% paraformaldehyde (Roth, Karlsruhe, Germany). Sprouting intensity of HUVEC spheroids treated with the test samples was quantitated using an image analysis system to determine the cumulative sprout length (CSL) per spheroid. Images of single spheroids were captured using an inverted microscope and the digital imaging software NIS-Elements BR 3.0 (Nikon). Spheroid pictures were uploaded to Wimasis (www.wimasis.com) for image analysis. The CSL of each spheroid was determined using the imaging analysis tool WimSprout. The mean CSL of ten randomly selected spheroids was analyzed as an individual data point.

VEGFR1 [7] = biological target: T4, VEGFR1 (Homo sapiens, UniProt P17948)
TIE2 [8] = biological target: T5, TIE2 (Homo sapiens, UniProt Q02763)
VEGFR1 [9] = biological target: T4, VEGFR1; assay: Ten-dose IC50 measurement; details: 10μM ATP
TIE2 [10] = biological target: T5, TIE2; assay: Ten-dose IC50 measurement; details: 10μM ATP
TIE2 [11] = biological target: T5, TIE2; assay: HotSpot kinase screen; type: biochemical; set-up: purchased Reaction Biology Corporation (contract assay); details: 10μM ATP
VEGFR1 [12] = biological target: T4, VEGFR1; assay: HotSpot kinase screen; type: biochemical; set-up: purchased Millipore Corporation (Dundee, Scotland) or Reaction Biology Corporation (contract assay); details: 10μM ATP
Experimental: as §1

[13] = 0.5 mg/kg bevacizumab (20.15μM)

T5 sequence (Q02763 23-1124): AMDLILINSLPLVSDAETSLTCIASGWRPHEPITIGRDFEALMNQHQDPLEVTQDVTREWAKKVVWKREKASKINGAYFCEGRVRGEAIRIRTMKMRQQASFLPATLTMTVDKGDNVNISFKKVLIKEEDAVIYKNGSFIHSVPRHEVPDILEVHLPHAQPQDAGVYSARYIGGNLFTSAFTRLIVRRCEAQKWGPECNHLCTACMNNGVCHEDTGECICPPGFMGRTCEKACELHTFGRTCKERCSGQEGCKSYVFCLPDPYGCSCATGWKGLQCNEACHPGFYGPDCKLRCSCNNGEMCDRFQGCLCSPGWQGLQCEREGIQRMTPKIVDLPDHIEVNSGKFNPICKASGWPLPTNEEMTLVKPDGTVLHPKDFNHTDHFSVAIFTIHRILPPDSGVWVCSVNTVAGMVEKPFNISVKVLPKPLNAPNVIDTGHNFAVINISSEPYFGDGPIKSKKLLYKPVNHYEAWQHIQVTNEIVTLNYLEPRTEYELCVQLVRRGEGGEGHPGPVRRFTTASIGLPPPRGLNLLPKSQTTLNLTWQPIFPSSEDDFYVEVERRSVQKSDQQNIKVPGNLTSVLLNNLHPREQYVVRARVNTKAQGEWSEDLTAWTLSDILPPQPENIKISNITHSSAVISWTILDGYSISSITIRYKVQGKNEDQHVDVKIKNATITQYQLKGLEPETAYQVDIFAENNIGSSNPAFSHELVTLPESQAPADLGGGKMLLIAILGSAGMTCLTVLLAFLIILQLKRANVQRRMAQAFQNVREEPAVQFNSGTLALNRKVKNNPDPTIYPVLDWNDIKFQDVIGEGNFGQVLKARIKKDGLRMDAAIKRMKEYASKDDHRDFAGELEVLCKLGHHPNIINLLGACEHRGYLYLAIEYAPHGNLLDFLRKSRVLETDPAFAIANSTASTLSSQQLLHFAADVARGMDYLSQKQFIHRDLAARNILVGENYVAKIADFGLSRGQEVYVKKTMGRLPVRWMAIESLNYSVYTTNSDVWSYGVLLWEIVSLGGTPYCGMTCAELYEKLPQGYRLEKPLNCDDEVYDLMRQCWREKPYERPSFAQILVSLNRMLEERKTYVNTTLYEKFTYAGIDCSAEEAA
T1 sequence (P35968 20-1356): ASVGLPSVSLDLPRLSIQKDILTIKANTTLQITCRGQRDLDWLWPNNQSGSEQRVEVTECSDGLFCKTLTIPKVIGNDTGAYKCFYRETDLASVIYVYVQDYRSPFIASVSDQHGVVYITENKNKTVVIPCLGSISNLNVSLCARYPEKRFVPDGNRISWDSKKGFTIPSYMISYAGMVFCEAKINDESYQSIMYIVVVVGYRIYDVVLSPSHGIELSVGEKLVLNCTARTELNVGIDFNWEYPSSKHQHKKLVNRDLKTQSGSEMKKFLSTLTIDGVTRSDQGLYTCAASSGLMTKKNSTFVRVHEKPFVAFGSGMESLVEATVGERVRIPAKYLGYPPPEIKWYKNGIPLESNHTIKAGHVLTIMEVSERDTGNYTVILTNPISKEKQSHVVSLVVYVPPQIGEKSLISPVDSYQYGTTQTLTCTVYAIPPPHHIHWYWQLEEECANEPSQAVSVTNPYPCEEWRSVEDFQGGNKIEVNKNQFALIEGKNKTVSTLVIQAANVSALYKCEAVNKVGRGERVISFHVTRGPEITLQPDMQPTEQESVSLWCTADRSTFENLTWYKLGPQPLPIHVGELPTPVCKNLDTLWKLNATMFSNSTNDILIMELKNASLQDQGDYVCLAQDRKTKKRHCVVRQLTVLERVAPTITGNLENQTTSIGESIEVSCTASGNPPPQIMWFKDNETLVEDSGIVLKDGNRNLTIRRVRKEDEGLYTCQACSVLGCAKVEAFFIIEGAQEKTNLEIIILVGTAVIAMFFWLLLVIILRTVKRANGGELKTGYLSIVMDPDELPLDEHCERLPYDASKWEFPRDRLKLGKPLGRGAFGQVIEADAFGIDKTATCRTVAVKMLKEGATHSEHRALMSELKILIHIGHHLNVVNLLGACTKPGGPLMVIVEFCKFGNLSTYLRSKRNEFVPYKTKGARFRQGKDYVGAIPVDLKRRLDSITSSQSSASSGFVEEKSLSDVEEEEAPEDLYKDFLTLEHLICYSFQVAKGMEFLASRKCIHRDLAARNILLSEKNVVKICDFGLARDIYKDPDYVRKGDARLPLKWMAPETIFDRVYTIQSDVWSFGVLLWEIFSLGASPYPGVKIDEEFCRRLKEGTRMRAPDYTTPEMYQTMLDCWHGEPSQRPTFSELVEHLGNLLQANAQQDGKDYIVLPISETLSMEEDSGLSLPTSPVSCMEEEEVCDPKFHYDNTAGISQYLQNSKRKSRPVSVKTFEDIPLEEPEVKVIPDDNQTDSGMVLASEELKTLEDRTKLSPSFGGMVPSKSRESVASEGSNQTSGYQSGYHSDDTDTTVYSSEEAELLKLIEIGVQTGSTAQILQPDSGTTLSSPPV
T3 sequence (P35916 25-1363): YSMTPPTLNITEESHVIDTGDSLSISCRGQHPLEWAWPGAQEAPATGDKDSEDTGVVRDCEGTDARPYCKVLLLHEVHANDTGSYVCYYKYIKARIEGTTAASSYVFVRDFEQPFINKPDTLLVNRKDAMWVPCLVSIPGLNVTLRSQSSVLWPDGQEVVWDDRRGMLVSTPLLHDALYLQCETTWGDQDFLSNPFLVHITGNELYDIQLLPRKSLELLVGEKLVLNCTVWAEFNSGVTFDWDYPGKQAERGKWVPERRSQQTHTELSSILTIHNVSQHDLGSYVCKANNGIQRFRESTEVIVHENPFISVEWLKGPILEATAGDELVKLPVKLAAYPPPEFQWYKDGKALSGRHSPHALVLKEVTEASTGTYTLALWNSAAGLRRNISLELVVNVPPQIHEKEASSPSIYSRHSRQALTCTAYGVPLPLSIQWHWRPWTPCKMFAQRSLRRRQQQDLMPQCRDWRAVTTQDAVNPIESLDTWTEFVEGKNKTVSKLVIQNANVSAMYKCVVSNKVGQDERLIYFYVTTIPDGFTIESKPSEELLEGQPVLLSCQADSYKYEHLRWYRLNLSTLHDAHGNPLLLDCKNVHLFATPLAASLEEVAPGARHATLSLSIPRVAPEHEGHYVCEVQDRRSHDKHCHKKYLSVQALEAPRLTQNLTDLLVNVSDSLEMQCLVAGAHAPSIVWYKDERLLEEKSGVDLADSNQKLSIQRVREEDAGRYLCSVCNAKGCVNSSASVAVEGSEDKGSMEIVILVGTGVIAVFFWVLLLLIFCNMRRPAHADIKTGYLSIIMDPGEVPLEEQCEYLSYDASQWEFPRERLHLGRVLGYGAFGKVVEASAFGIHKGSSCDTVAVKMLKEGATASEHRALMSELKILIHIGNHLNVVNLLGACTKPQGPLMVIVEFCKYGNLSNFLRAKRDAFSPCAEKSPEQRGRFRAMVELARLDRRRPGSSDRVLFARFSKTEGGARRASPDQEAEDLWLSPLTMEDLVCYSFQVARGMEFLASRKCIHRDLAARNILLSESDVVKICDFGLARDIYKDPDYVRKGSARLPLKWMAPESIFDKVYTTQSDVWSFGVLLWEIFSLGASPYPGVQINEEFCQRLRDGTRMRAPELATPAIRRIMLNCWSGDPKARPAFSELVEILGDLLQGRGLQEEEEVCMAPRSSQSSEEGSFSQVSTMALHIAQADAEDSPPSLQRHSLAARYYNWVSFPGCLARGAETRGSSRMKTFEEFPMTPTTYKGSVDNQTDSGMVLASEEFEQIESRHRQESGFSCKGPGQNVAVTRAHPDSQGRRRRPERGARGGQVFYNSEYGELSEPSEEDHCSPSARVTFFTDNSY
T4 sequence (P17948 27-1338): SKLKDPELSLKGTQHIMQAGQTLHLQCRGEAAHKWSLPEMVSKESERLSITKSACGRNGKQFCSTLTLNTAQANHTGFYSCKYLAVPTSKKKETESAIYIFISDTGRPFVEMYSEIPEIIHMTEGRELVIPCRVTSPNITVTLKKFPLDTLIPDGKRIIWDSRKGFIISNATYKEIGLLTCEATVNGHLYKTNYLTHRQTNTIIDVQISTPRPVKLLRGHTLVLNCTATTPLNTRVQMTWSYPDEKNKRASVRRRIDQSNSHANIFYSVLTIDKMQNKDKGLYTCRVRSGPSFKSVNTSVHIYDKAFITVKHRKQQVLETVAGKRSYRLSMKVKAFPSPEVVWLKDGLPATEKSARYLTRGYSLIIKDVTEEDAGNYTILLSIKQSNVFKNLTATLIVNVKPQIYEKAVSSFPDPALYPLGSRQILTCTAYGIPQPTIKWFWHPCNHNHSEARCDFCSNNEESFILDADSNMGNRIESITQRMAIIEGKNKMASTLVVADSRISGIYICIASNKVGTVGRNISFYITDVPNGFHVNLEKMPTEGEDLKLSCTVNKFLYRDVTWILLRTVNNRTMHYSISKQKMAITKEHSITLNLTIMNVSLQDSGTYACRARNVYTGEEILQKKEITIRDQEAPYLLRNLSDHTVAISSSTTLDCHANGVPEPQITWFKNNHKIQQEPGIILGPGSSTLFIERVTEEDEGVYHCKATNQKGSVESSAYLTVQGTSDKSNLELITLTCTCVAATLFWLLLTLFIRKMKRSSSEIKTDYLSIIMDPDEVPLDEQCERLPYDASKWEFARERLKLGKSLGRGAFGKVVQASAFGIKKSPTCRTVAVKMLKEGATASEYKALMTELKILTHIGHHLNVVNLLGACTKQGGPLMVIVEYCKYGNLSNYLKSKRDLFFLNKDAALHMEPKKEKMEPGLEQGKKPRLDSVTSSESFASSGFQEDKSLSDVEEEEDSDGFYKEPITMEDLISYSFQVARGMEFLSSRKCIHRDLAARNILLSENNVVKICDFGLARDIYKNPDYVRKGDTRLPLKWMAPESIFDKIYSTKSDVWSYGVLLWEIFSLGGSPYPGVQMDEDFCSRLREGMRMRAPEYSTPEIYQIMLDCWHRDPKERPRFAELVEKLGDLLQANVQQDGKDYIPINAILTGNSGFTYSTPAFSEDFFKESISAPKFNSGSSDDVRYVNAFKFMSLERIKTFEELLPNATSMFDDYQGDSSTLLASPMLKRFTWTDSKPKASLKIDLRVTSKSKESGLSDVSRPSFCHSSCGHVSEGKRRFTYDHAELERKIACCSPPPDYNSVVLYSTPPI

## Bevacizumab: known anti-VEGF antibody, reference compound (positive control) in the CAM assay
[1]; [13]
  Angiogenesis - Vessel number, Mean: 11.4
  Angiogenesis - Vessel thickness score, Mean: 0.8
  Angiogenesis - Vessel thickness score, individual egg: 1.33 and 0.33 and 1.67 and 0 and 1
[1]; 0.5 mg/kg bevacizumab (20.15μM), one value per egg
  Angiogenesis - Vessel number, individual egg: 9.33 and 9.67
[1]; 0.5 mg/kg bevacizumab (20.15μM), p = 0.05
  vessel reduction compared to the negative control: 18%

## CNC(=O)c1ccccc1Sc1ccc2c(/C=C/c3ccccn3)n[nH]c2c1 [Axitinib]
VEGFR2 [2]; 1uM TKI
  Avg % Inhibition VEGFR2: 100%
VEGFR2 [2]; 10uM TKI
  Avg % Inhibition VEGFR2: 90.96%
FGFR2; 1uM TKI
  Avg % Inhibition FGFR2: 93.95%
FGFR2; 10uM TKI
  Avg % Inhibition FGFR2: 98.81%
VEGFR3 [3]; 1uM TKI
  Avg % Inhibition VEGFR3: 97.27%
VEGFR3 [3]; 10uM TKI
  Avg % Inhibition VEGFR3: 99.21%
VEGFR2 [4]; 1.00E-05 M TKI
  %Activity VEGFR2: 7.43%
VEGFR2 [4]; 1.11E-06 M TKI
  %Activity VEGFR2: 4.53%
VEGFR2 [4]; 1.23E-07 M TKI
  %Activity VEGFR2: 7.10%
VEGFR2 [4]; 1.37E-08 M TKI
  %Activity VEGFR2: 13.24%
VEGFR2 [4]; 1.52E-09 M TKI
  %Activity VEGFR2: 62.16%
VEGFR2 [4]; 3.33E-06 M TKI
  %Activity VEGFR2: 6.81%
VEGFR2 [4]; 3.70E-07 M TKI
  %Activity VEGFR2: 7.21%
VEGFR2 [4]; 4.12E-08 M TKI
  %Activity VEGFR2: 8.44%
VEGFR2 [4]; 4.57E-09 M TKI
  %Activity VEGFR2: 25.12%
VEGFR2 [4]; 5.08E-10 M TKI
  %Activity VEGFR2: 84.02%
VEGFR2 [4]; IC50 curve fit
  HillSlope VEGFR2: -1.18
VEGFR3 [5]; 1.00E-05 M TKI
  %Activity VEGFR3: 2.02%
VEGFR3 [5]; 1.11E-06 M TKI
  %Activity VEGFR3: 2.44%
VEGFR3 [5]; 1.37E-08 M TKI
  %Activity VEGFR3: 28.96%
VEGFR3 [5]; 1.52E-09 M TKI
  %Activity VEGFR3: 56.16%
VEGFR3 [5]; 3.33E-06 M TKI
  %Activity VEGFR3: 1.23%
VEGFR3 [5]; 3.70E-07 M TKI
  %Activity VEGFR3: 5.72%
VEGFR3 [5]; 4.57E-09 M TKI
  %Activity VEGFR3: 40.16%
VEGFR3 [5]; 5.08E-10 M TKI
  %Activity VEGFR3: 63.17%
[6]; 1.00E-05 M TKI
  cumulative sprout length per spheroid (CSL), mean: 259
[6]; 1.00E-06 M TKI
  cumulative sprout length per spheroid (CSL), mean: 441
[6]; 1.00E-07 M TKI
  cumulative sprout length per spheroid (CSL), mean: 459
[6]; 3.00E-06 M TKI
  cumulative sprout length per spheroid (CSL), mean: 354
[6]; 3.00E-07 M TKI
  cumulative sprout length per spheroid (CSL), mean: 373
[6]; 3.00E-08 M TKI
  cumulative sprout length per spheroid (CSL), mean: 379
[6]; highest test concentration of 1×10^–5M
  vessel sprouting (representative spheroid images): zero vessel sprouting
VEGFR1 [7]
  activity: 5.07%
TIE2 [8]
  activity: 60.1%
VEGFR1 [9]; 1.00E-05 M TKI
  %Activity VEGFR1: -0.87%
VEGFR1 [9]; 1.11E-06 M TKI
  %Activity VEGFR1: -0.31%
VEGFR1 [9]; 1.37E-08 M TKI
  %Activity VEGFR1: 18.99%
VEGFR1 [9]; 1.52E-09 M TKI
  %Activity VEGFR1: 42.18%
VEGFR1 [9]; 3.33E-06 M TKI
  %Activity VEGFR1: -0.89%
VEGFR1 [9]; 4.12E-08 M TKI
  %Activity VEGFR1: 9.96%
VEGFR1 [9]; 4.57E-09 M TKI
  %Activity VEGFR1: 22.02%
VEGFR1 [9]; 5.08E-10 M TKI
  %Activity VEGFR1: 59.50%
TIE2 [10]; 1.00E-05 M TKI
  %Activity TIE2: 10.50%
TIE2 [10]; 1.11E-06 M TKI
  %Activity TIE2: 16.32%
TIE2 [10]; 1.37E-08 M TKI
  %Activity TIE2: 87.12%
TIE2 [10]; 1.52E-09 M TKI
  %Activity TIE2: 98.75%
TIE2 [10]; 3.33E-06 M TKI
  %Activity TIE2: 7.06%
TIE2 [10]; 3.70E-07 M TKI
  %Activity TIE2: 38.01%
TIE2 [10]; 4.12E-08 M TKI
  %Activity TIE2: 78.65%
TIE2 [10]; 4.57E-09 M TKI
  %Activity TIE2: 95.05%
TIE2 [10]; 5.08E-10 M TKI
  %Activity TIE2: 95.58%
TIE2 [11]; 1uM TKI
  Avg % Inhibition TIE2: 81% and 81.47%
TIE2 [11]; 10uM TKI
  Avg % Inhibition TIE2: 89% and 89.11%
TIE2 [11]; 10uM TKI, listed as axitinib
  Avg % Inhibition TIE2: up to 89%
[1]; TKI at 200 x VEGFR2 IC50
  Angiogenesis - Vessel number, Mean: 11.1
[1]; TKI at 200 x VEGFR2 IC50, one value per egg
  Angiogenesis - Vessel number, individual egg: 9.33 and 12.67 and 12 and 10.33
[1]; TKI at VEGFR2 IC50 dose
  reduction of the number of blood vessels perfusing the sponges vs negative control: 24.6%
  Angiogenesis - Vessel thickness score, Mean: 0.9
  Angiogenesis - Vessel thickness score, individual egg: 0.33 and 1.33 and 0 and 1.67
VEGFR1 [12]; 1uM TKI
  Avg % Inhibition VEGFR1: 100%
VEGFR1 [12]; 10uM TKI
  Avg % Inhibition VEGFR1: 97.53%
